Data published in ChEMBL document CHEMBL1201862, “PubChem BioAssay data set” (2004).
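96-well plates; 48 h exposure; 5 concentrations. Endpoints by linear interpolation between flanking doses. Not reached: highest tested concentration assigned. GI50 marks 50% less growth.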 The source made the active and inactive calls. No stated cut-off is given here; in the data, active = GI50 up to about 1.1 µM and inactive = higher.

What was measured:
Test in all cases: DTP human tumour cell line panel, 48 h
MDA-MB-435 = system: MDA-MB-435
NCI-H23 = system: NCI-H23
MDA-N = system: MDA-N
SK-OV-3 = system: SK-OV-3
UO-31 = system: UO-31
DMS-273 = system: DMS-273
SF-268 = system: SF-268
T47D = system: T47D
SNB-19 = system: SNB-19
DU-145 = system: DU-145
KM12 = system: KM12
SN12C = system: SN12C
SW-620 = system: SW-620
KM-20L2 = system: KM-20L2
CAKI-1 = system: CAKI-1
M19-MEL = system: M19-MEL
PC-3 = system: PC-3
U-251 = system: U-251
RPMI-8226 = system: RPMI-8226
SF-539 = system: SF-539

Measured: GI50

CN(C)CCCCN1CCc2c(n(C)c3ccccc23)C1=O
inactive: MDA-MB-435 17.5 µM | NCI-H23 82 µM | MDA-N 13.4 µM | SK-OV-3 > 70 µM | UO-31 56.9 µM | DMS-273 > 66.7 µM | SF-268 48.1 µM | T47D 23.4 µM | SNB-19 > 76.9 µM | DU-145 > 84.5 µM | KM12 68.7 µM | SN12C 68.1 µM | SW-620 44.4 µM | KM-20L2 33 µM | CAKI-1 > 55.8 µM | M19-MEL 38 µM

Cc1nc2cc(/N=N/c3c(O)ccc4ccccc34)ccc2[nH]1
inactive: MDA-MB-435 23.1 µM | NCI-H23 > 62.2 µM | MDA-N 17 µM | SK-OV-3 > 100 µM | UO-31 45.1 µM | DMS-273 19.4 µM | PC-3 21 µM | SF-268 > 68.5 µM | T47D 21 µM | SNB-19 > 96.4 µM | DU-145 36 µM | KM12 25.4 µM | SN12C 36.9 µM | U-251 27.3 µM | SW-620 32.4 µM | RPMI-8226 24.3 µM | KM-20L2 > 100 µM | CAKI-1 26.6 µM | SF-539 26.7 µM | M19-MEL 23.2 µM

CCOC(C)OCC#CCCBr (stereo unspecified)
inactive: NCI-H23 > 100 µM | SK-OV-3 > 100 µM | UO-31 > 100 µM | DMS-273 > 100 µM | SF-268 > 100 µM | SNB-19 > 100 µM | KM12 > 100 µM | SN12C > 100 µM | U-251 > 100 µM | SW-620 > 100 µM | RPMI-8226 > 100 µM | KM-20L2 > 100 µM | CAKI-1 > 100 µM | SF-539 > 100 µM | M19-MEL > 100 µM
